Assay results as given in article PMC9501280, “Anti-Inflammatory Activity of Soluble Epoxide Hydrolase Inhibitors Based on Selenoureas Bearing an Adamantane Moiety” (International Journal of Molecular Sciences, 2022).
Values after ≈ are worked out from the molar mass of the structure shown. “Also recorded” adds a separate entry of the source. Read-outs that look alike come from different tables or passages of the source.

Experiments:
[1] = Solubility in sodium phosphate buffer; format: physicochemical; settings: aqueous buffer, kinetic from dmso stock; sodium phosphate buffer (pH 7.4, 0.1 M) containing 1% DMSO
Description: To our knowledge, no systematic studies of selenoureas as sEH inhibitors have been performed previously. The potency of the compounds was determined against the human recombinant sEH and their solubility assessed in phosphate-buffered saline (Table 1).

[2] = Nitric oxide radical scavenging assay (sodium nitroprusside, Griess); settings: sample solution 0.5 mM, sodium nitroprusside 5 mM, 150 min
Description: The activity of compounds 4a–g and 5a with respect to NO^• generated from sodium nitroprusside, which further interacts with dissolved oxygen to form nitrite ions measured using the Griss reagent, was investigated.
Sodium nitroprusside (SNP) dissolved in aqueous solution at physiological pH 7.2 can generate nitric oxide whose level can be measured by the Griess reaction. Sample solution (50 µL, 0.5 mM) was mixed with SNP (50 µL, 5 mM) in phosphate buffer at pH 7.4 (0.2 M), followed by an incubation at room temperature for 150 min. Similarly, a blank was prepared by adding the sample solution in phosphate buffer without SNP. Griess reagent (solutions of 0.33% sulfanilic acid and 0.1% N-(1-naphthyl) ethylenediamine (NED) (C12H14N2) in 20% glacial acetic acid; 1:1) (100 µL) was added to the incubated sample and allowed to stand for 30 min. Absorbance values of the blank and samples were measured at 548 nm. The absorbance of the blank was then subtracted from that of the sample. Results were expressed as %inhibition. Inhibition I (%) = [(A0 − A1)/A0] × 100, where A1 is the absorbance in the presence of the testing compound, and A0 is the absorbance of the blank solution. All experiments were performed three times.

[3] = Ferrous ions (Fe2+) chelating activity (FIC); settings: compound 5 mM; EDTA taken as 100%
Excerpt: One of the most important antioxidant properties of compounds is the ability to chelate transition metal ions, including iron, which participate in the Fenton reaction, forming an active HO^• and H2O2 and contributing to the development of radical processes, respectively, leading to oxidative damage to cells. In this regard, potential antioxidants can act not only as scavengers of active radicals but also have chelating properties. Therefore, the Ferrous Ions Chelating Activity (FIC) of compounds 4a–g and 5a were evaluated in this work by their ability to bind iron(II), which is expressed in a decreased amount of the colored ferrozine complex.
The chelation of ferrous ions by compounds was estimated by the method of Dinis et al. Briefly, 10 μL of 2 mM FeCl2 was added to 20 μL of the investigated compound (5 mM) and 150 μL of EtOH. The reaction was initiated by the addition of 0.04 mL of 5 mM ferrozine solution. The mixture was left to stand at 35 °C for 10 min. The absorbance of the solution was thereafter measured at 562 nm. The percentage inhibition of ferrozine–Fe^2+ complex formation was calculated as […], where A0 is the absorbance of the control, and As is the absorbance of the compound/standard. Na2EDTA was used as the positive control.

[4] = molecular target: T1, human recombinant sEH (Homo sapiens, UniProt P34913); assay: Human sEH inhibition, kinetic fluorescent assay; format: biochemical
T1 sequence (P34913 1-555): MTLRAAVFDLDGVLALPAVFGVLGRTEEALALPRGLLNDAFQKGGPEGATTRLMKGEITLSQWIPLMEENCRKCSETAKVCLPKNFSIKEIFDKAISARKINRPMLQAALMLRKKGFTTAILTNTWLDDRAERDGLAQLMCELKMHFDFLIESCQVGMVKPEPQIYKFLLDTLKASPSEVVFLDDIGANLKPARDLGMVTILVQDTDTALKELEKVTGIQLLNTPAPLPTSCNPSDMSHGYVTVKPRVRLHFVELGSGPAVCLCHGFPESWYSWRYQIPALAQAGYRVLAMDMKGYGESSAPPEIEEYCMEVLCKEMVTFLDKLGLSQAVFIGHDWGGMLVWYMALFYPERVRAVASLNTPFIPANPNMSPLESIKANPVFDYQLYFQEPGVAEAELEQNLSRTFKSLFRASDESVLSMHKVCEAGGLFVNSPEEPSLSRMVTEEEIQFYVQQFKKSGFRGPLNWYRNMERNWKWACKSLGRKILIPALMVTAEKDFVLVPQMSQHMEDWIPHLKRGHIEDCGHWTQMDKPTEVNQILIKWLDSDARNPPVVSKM

[5] = DPPH radical scavenging activity; settings: compound solution 0.2 mM in MeOH mixed 1:1 with 0.2 mM DPPH, 40 min, 20 °C
Description: The free radical scavenging activity was evaluated using the stable radical 2,2-diphenyl-1-picrylhydrazyl (DPPH), according to the method described by Brand-Williams with a slight modification. Solutions of the compounds in MeOH were studied at a concentration of 0.2 mM. The stock DPPH solution contained 0.2 mM of radical in MeOH. An amount of 0.1 mL of the test compound solution was added to 0.1 mL of DPPH solution (0.2 mM) in each cell so that the initial DPPH concentration in the cells was 0.1 mM. The microplate was placed in a spectrophotometer, and the decrease in the absorbance values of the DPPH solution for 40 min at 20 °C was measured at λmax = 517 nm. The results were expressed as scavenging activity, calculated as follows: scavenging activity, % = [(A0 − A1)/A0] × 100, where A0 is the optical density of the control solution DPPH, and A1 is the optical density of the reaction mixture solution.

[6] = kinetic fluorescent assay, means of three separate experiments, read-out: Human sEH IC50

Compound | solubility [1] | % Inhibition NO• [2] | % Inhibition FIC [3] | IC50 [4, 6] | % Inhibition DPPH• [5] | melting point | increase in the inhibitory activity ([4]; 4b versus 4a, one methylene group between adamantyl and selenourea) | IC50 ([4]; human sEH, read-out: IC50 (sEH))
[Se]=C(Nc1ccccc1)NC12CC3CC(CC(C3)C1)C2 [4a, 1-(Adamantan-1-yl)-3-phenylselenourea] | 55 ± 10 µM (≈ 18.3 µg/mL) | non active | 13.6 ± 0.04% | 436 nM | 44.89 ± 0.04% | 202 to 203 °C |  | 
[Se]=C(NCC12CC3CC(CC(C3)C1)C2)Nc1ccccc1 [4b, 1-[(Adamantan-1-yl)methyl]-3-phenylselenourea] | 110 ± 20 µM (≈ 38.2 µg/mL) | 20.57 ± 1.42% | 14.15 ± 2.27% | 131 nM | 70.75 ± 1.10% | 197 to 198 °C | 3.3 fold | 
CC(NC(=[Se])Nc1ccccc1)C12CC3CC(CC(C3)C1)C2 (stereo not shown) [4c, 1-[1-(Adamantan-1-yl)ethyl]-3-phenylselenourea] | 50 ± 5 µM (≈ 18.1 µg/mL) | 54.35 ± 2.38% | 21.90 ± 1.88% | 1210 nM | 68.81 ± 1.69% |  |  | 1200 nM
[Se]=C(NCCC12CC3CC(CC(C3)C1)C2)Nc1ccccc1 [4d, 1-[2-(Adamantan-1-yl)ethyl]-3-phenylselenourea] | 70 ± 10 µM (≈ 25.3 µg/mL) | 31.36 ± 2.48% | not established; also recorded: non active | 49.1 nM | 70.90 ± 2.13% | 141 to 142 °C |  | 
[Se]=C(Nc1ccccc1)Nc1ccc(C23CC4CC(CC(C4)C2)C3)cc1 [4e, 1-[4-(Adamantan-1-yl)phenyl]-3-phenylselenourea] | 30 ± 10 µM (≈ 12.3 µg/mL) | 2.63 ± 0.99% | not established; also recorded: non active | 55.4 nM | 66.15 ± 0.56% | 163 to 164 °C |  | 
CC12CC3CC(C)(C1)CC(NC(=[Se])Nc1ccccc1)(C3)C2 [4f, 1-(3,5-Dimethyladamantan-1-yl)-3-phenylselenourea] | 100 ± 10 µM (≈ 36.1 µg/mL) | 7.27 ± 0.72% | 26.20 ± 3.20% | 256 nM | 58.35 ± 0.92% | 142 to 143 °C |  | 
[Se]=C(Nc1ccccc1)NC1C2CC3CC(C2)CC1C3 (stereo not shown) [4g, 1-(Adamantan-2-yl)-3-phenylselenourea] | 80 ± 20 µM (≈ 26.7 µg/mL) | 27.91 ± 1.50% | 19.74 ± 1.57% | 104 nM | 71.82 ± 1.10% | 187 to 188 °C |  | 
[Se]=C(NCc1ccccc1)NC12CC3CC(CC(C3)C1)C2 [5a, 1-(Adamantan-1-yl)-3-benzylselenourea] | 125 ± 20 µM (≈ 43.4 µg/mL) | non active | not established; also recorded: non active | 211 nM | 59.45 ± 0.09% | 157 to 158 °C |  | 
